In patent US20050238685A1, “Method of binding a compound to a surface” (priority 2002, published 2005):

Legend:
[1] = Cholesterol oxidase immobilized on hydrophobin-coated glassy carbon electrode, current response to cholesterol; type: biochemical; conditions: phosphate buffer pH 7
Excerpt: To overcome the poor solubility of cholesterol in water, the cholesterol was solubilized in isopropanol with Triton in phosphate buffer (Ropers, M.-H. et al., 2001, Phys. Chem. Chem. Phys. 3:240-245).

[2] = Glucose oxidase and peroxidase immobilized on hydrophobin-coated TEFLON sheets, o-dianisidine colour assay at 435 nm; type: biochemical; conditions: hydrophobin-coated TEFLON sheet (SC3, trSC3, SC4), partner enzyme in solution
Protocol: The coating was achieved by incubating the TEFLON™ at 25° C. in 2 ml of a 100 μg/ml hydrophobin solution (here SC3, trSC3 and SC4 were used in separate experiments) in a 3 ml glass vial for 15 minutes. The sheets were removed from the hydrophobin solution and were washed with large amounts of water to remove any unbound hydrophobin.
Both sheets were placed in a container containing o-dianisidine and, upon addition of glucose, the solution became colored.
The functionalized TEFLON™ is still active after storage for several weeks at 4° C.

[3] = hydrophobin-coated glassy carbon electrode, phosphate buffer pH 7
Protocol: Glassy carbon electrode was coated with hydrophobin by placing the electrode in a solution of hydrophobin (100 μg/ml) and incubating for 15 minutes, after which the electrode was thoroughly rinsed with water.
The electrode, modified and functionalized with the enzyme, was placed in a three electrode system, including an Ag/AgCl reference electrode and a Pt counter electrode, using phosphate buffer pH 7 (25 mM).
The modified electrode was stored in a sealed container, not in liquid, at 4° C., and tested frequently for activity and response to glucose.

[4] = Different enzymes immobilized via SC3 hydrophobin on TEFLON, spectrophotometry at 412 and 435 nm; type: biochemical; conditions: SC3-coated TEFLON
Protocol: The surface was first coated with SC3 hydrophobin by immersion in the protein aqueous solution (0.3 mg/mL) during approximately 30 minutes. The obtained modified surface was then immersed in an aqueous enzyme solution during approximately 30 minutes. After each step, the TEFLON™ surface was rinsed with an adequate buffer solution. Activity of the immobilized enzymes was followed by spectrophotometry at 412 and 435 nm after immersion of the functionalized surface in the corresponding substrate solution. The optical density of the solution increases after the immersion of the functionalized surface and stays constant after its removal. […] The functionalized TEFLON® was stored at 4° C. in an Eppendorf tube containing a buffer solution.
(Biocatalysts, Wales; final concentration 2.1 mg/mL), lipase from Candida cylindracea (Biocatalysts, Wales; final concentration 0.25 mg/mL), porcine liver esterase (SIGMA; 41 U/mg of solid, final concentration 2.4 mg/mL), bovine pancreas trypsin (SIGMA; 8,750 U/mg of solid).

cholesterol oxidase
activity of immobilized cholesterol oxidase [1]: remaining active

firefly luciferase: firefly luciferase (Roche, cat no. 411523)
activity of enzyme attached to bare wells: not active

glucose oxidase
activity of immobilized enzyme (oxidation of o-dianisidine upon addition of glucose) [2]: absorption at 435 nm was observed
activity of glucose oxidase upon immobilization on the hydrophobin layer [3]: remained active

peroxidase: horseradish peroxidase (SIGMA)
state of immobilized enzymes (denaturation, desorption) [4]: not denatured and are not desorbed from the surface
function after storage ([4]; 4° C. in buffer solution): still functional after several weeks
activity of immobilized enzyme (oxidation of o-dianisidine upon addition of glucose) [2]: Coloring of the solution
